Experimental data: patent US10226455B2 (priority 2014, dated 2019)
Read-outs that look alike come from different tables or passages of the source.

Key:
P. Falciparum [1] = experiment: In vitro inhibition of P. falciparum variants, DAPI fluorescence imaging assay in erythrocyte cultures; format: cell-based
From the text: Sensitivity of the P. Falciparum variants to (i.e. inhibition of the parasites by) RTI-79chloroquine, or rifamycin was quantitated via assay as previously described. Duffy, S. and V. M. Avery, Development and optimization of a novel 384-well anti-malarial imaging assay validated for high-throughput screening. Am J Trop Med Hyg, 2012. 86(1): p. 84-92. Inhibition of P. Falciparum with various concentrations of the inhibitors was quantified by measuring DAPI fluorescence of parasite DNA in erythrocyte cultures.
Decreased DAPI staining quantified as relative light units (“RLU”), is observed with parasite inhibition in the assays.

[2] = Time to maximal plasma concentration / tissue absorption after administration
From the text: In certain embodiments, the rifamycin, rifamycin derivative, rifampicin, rifampicin derivative, or pharmaceutically acceptable salt, hydrate, or prodrug thereof, or combination thereof, can be administered in a method that matches the pharmokinetics of the composition to that of the antiparasitic drug also administered to the recipient.

[3] = tested on: multidrug resistant Haemonchus contortus isolate UGA2004 L3 stage larvae; details: for inhibition of larval motility compared with verapamil: with IVR, 10 or 20 uM RTI-79, 20 uM RTI-176, 10 uM verapamil
Protocol: Each well contained a 300 uL solution containing approximately 75 L3 stage larvae, IVR, and pgp inhibitor or control. IVR was provided in serially diluted concentrations of 50, 25, 12.5, 6.25, 3.125, 1.56, 0.78 or 0.39 uM, to permit evaluation of the dose response to IVR in the presence of the pgp inhibitors. Inhibition of larval motility was determined by failure of the incubated larvea to move when stimulated by light exposure after incubation.

P-gp = details: previously demonstrated; cited from earlier work
[4] = tested on: UGA2004 H. contortus isolate eggs; experiment: Larval development assay, sensitization to thiabendazole; design: species or system Haemonchus contortus
Protocol: TBZ was provided in a range of concentrations to permit evaluation of the dose response to TBZ in the presence of the pgp inhibitors. After incubation of the eggs for seven days, the number of stage 3 (“L3”) larvae that developed with each treatment was counted.

P. Falciparum [5] = experiment: Chloroquine sensitization in chloroquine-resistant P. Falciparum (survival of variants); format: cell-based
From the text: Quinine and quinine derivatives including chloroquine inhibit the Plasmodium parasites, including P. Falciparum, by accumulating in food vacuoles and causing accumulation of cytotoxic heme, thereby poisoning the parasite.

P. Falciparum [6] = details: read-out: previously-reported IC50 of chloroquine, cited from earlier work
[7] = cited from earlier work

## 4-deoxy-3,4[2-spiro-[1-(isobutyloxycarbonyl)-piperidin-4-yl]]-(1H)-imidazo-(2,5-dihydro)rifamycin S [RTI-79]
P. Falciparum [1]; all strains, FIGS. 1A-1C
  inhibition of strains (DAPI staining, RLU): Dose-dependent inhibition of all strains
P. Falciparum [1]; all variants (3D7, Dd2, K1; chloroquine-sensitive and -resistant), read-out: observed IC50
  IC50: ~625 nM
[2]
  time to maximal plasma concentration: ≤ 3 h
[3]
  inhibition of larval motility compared with verapamil: more potent inhibition of larval motility
P-gp
  drug efflux from cells: prevent drug efflux from cells

## 11-deoxy-11-amino-4-deoxy-3,4[2-spiro-[1-(isobutyloxycarbonyl)-piperidin-4-yl]]-(1H)-imidazo-(2,5-dihydro)rifamycin S [RTI-176]
[4]; relative to both verapamil and the 1% DMSO control, FIG. 3B
  shift of TBZ dose response curve: shifted the TBZ dose response curve to the left
[4]; seven days incubation, relative to control and verapamil
  shift of the IC50 of TBZ: 3.79 fold
[3]; relative to the 1% DMSO control, FIG. 3A
  shift of IVR dose response curve: shifted the IVR dose response curve to the left
[3]
  inhibition of larval motility compared with verapamil: more potent inhibition of larval motility

## CCN(CC)CCCC(C)Nc1ccnc2cc(Cl)ccc12 (centres unmarked) [chloroquine]
P. Falciparum [5]; 3D7 variant, chloroquine at or greater than IC50
  parasite survival: death of the parasite
P. Falciparum [5]; chloroquine-resistant variants, chloroquine alone at or below the 3D7 IC50
  parasite survival: survive
P. Falciparum [6]; chloroquine-resistant Dd2 variant
  IC50: 100 nM
P. Falciparum [6]; chloroquine-resistant K1 variant
  IC50: 255 nM
P. Falciparum [6]; chloroquine-sensitive 3D7 variant
  IC50: ~10 nM

## CO[C@H]1/C=C/O[C@@]2(C)Oc3c(C)c(O)c4c(c3C2=O)C2=NC3(CCN(CC(C)C)CC3)NC2=C(NC(=O)/C(C)=C\C=C\[C@H](C)[C@H](O)[C@@H](C)[C@@H](O)[C@@H](C)[C@H](OC(C)=O)[C@@H]1C)C4=O [rifabutin]
[7]; biphasic elimination
  initial half-life of plasma elimination: approximately 4 hours
[7]; in vivo, po, 300 mg
  mean (±SD) peak plasma concentration (Cmax): 375 (±267) ng/mL
  peak plasma concentration (Cmax), range: 141 to 1033 ng/mL
